This passage reports EC50 results from patent publication US12459922B2 (Gilead Sciences, Inc., priority 2022, dated 2025).

This assay deals with endogenous cellular STAT1 (phosphorylated at Tyr701) in NCI-H1373 cells. The assay is described as follows: Phospho-STAT1 (Tyr701) LANCE Ultra TR-FRET Detection Assay. In kind it is cell-based. The note with it: Homo sapiens, NCI-H1373, 48 h, phospho-STAT1 (Tyr701) induction, read-out: NH1373 pSTAT1 EC50.

Usually EC50 stands for the concentration needed to bring the measured effect to its halfway point. With `C[C@@H](CCCn1cnc2cc(-c3ncc(C(F)F)c(N)n3)c(F)cc2c1=O)Nc1cn[nH]c(=O)c1C(F)(F)F` [Example 108, 7-[4-amino-5-(difluoromethyl)pyrimidin-2-yl]-6-fluoro-3-[(4S)-4-[[6-oxo-5-(trifluoromethyl)-1H-pyridazin-4-yl]amino]pentyl]quinazolin-4-one], the EC50 was 0.0294 µM.

Turning to `CCOc1ccc(-c2cc3ccn(CCC[C@H](C)Nc4cn[nH]c(=O)c4C(F)(F)F)c(=O)c3cc2F)nc1N` [Example 193, (S)-6-(6-amino-5-ethoxypyridin-2-yl)-7-fluoro-2-(4-((6-oxo-5-(trifluoromethyl)-1,6-dihydropyridazin-4-yl)amino)pentyl)isoquinolin-1(2H)-one], the EC50 was found to be 0.0223 µM.

As for `C[C@@H](CCCn1cnc2cc(-c3ncc(C4CC4)cn3)c(F)cc2c1=O)Nc1cn[nH]c(=O)c1C(F)(F)F` [Example 83, (S)-7-(5-cyclopropylpyrimidin-2-yl)-6-fluoro-3-(4-((6-oxo-5-(trifluoromethyl)-1,6-dihydropyridazin-4-yl)amino)pentyl)quinazolin-4(3H)-one], the EC50 was 0.0582 µM.

`CC[C@@H](CCCn1ccc2cc(-c3ncc(C(F)F)c(N)n3)c(F)cc2c1=O)Nc1cn[nH]c(=O)c1C(F)(F)F` [Example 297, (S)-6-(4-amino-5-(difluoromethyl)pyrimidin-2-yl)-7-fluoro-2-(4-((6-oxo-5-(trifluoromethyl)-1,6-dihydropyridazin-4-yl)amino)hexyl)isoquinolin-1(2H)-one]: the concentration for a half-maximal effect (EC50) came out at 0.00371 µM.

Turning to `O=c1[nH]ncc(N[C@H](CCCn2ccc3cc(-c4cnc(C(F)(F)F)cn4)c(F)cc3c2=O)COC(F)F)c1C(F)(F)F` [Example 417, (R)-2-(5-(difluoromethoxy)-4-((6-oxo-5-(trifluoromethyl)-1,6-dihydropyridazin-4-yl)amino)pentyl)-7-fluoro-6-(5-(trifluoromethyl)pyrazin-2-yl)isoquinolin-1(2H)-one], the EC50 turned out to be 0.00228 µM.

On to `C[C@H](CCCn1ccc2cc(-c3ccc(C(F)(F)F)cn3)ccc2c1=O)Nc1cn[nH]c(=O)c1C(F)(F)F` (single isomer, unassigned) [Example 2], for which the EC50 came to 10 µM.

With `C[C@@H](CCCn1cnc2cc(-c3ncc(C(F)(F)F)c(NC4CC4)n3)c(F)cc2c1=O)Nc1cn[nH]c(=O)c1C(F)(F)F` [Example 116, 7-[4-(cyclopropylamino)-5-(trifluoromethyl)pyrimidin-2-yl]-6-fluoro-3-[(4S)-4-[[6-oxo-5-(trifluoromethyl)-1H-pyridazin-4-yl]amino]pentyl]quinazolin-4-one], the EC50 turned out to be 0.0067 µM.

Take `C[C@@H](/C=C/Cn1ccc2cc(-c3ncc(C(F)(F)F)cn3)c(F)c(F)c2c1=O)Nc1cn[nH]c(=O)c1C(F)(F)F` [Example 133, (S,E)-7,8-difluoro-2-(4-((6-oxo-5-(trifluoromethyl)-1,6-dihydropyridazin-4-yl)amino)pent-2-en-1-yl)-6-(5-(trifluoromethyl)pyrimidin-2-yl)isoquinolin-1(2H)-one]: the EC50 came to 0.00283 µM.

For `O=c1[nH]ncc(N[C@H](CCCn2cnc3cc(-c4ncc(C(F)(F)F)cn4)c(F)cc3c2=O)C2CC2)c1C(F)(F)F` [Example 471, 3-[(4R)-4-cyclopropyl-4-[[6-oxo-5-(trifluoromethyl)-1H-pyridazin-4-yl]amino]butyl]-6-fluoro-7-[5-(trifluoromethyl)pyrimidin-2-yl]quinazolin-4-one], the EC50 is 0.0232 µM.

In the case of `Nc1nc(-c2cc3ccn(C[C@@H]4CCC[C@H](Nc5cn[nH]c(=O)c5C(F)(F)F)C4)c(=O)c3c(F)c2F)cnc1C(F)(F)F` [Example 257, 6-(6-amino-5-(trifluoromethyl)pyrazin-2-yl)-7,8-difluoro-2-(((1R,3S)-3-((6-oxo-5-(trifluoromethyl)-1,6-dihydropyridazin-4-yl)amino)cyclohexyl)methyl)isoquinolin-1(2H)-one], the EC50 stood at 0.0251 µM.

In the case of `Nc1nc(-c2cc3ncn(CCC[C@H](COC(F)F)Nc4cn[nH]c(=O)c4C(F)(F)F)c(=O)c3cc2F)ccc1C(F)F` [Example 395, (R)-7-(6-amino-5-(difluoromethyl)pyridin-2-yl)-3-(5-(difluoromethoxy)-4-((6-oxo-5-(trifluoromethyl)-1,6-dihydropyridazin-4-yl)amino)pentyl)-6-fluoroquinazolin-4(3H)-one], the EC50 was 0.0304 µM.

As for `O=c1[nH]ncc(N[C@H](CCCn2cnc3cc(-c4nc5ccccn5n4)c(F)cc3c2=O)COC(F)F)c1C(F)(F)F` [Example 490, (R)-7-([1,2,4]triazolo[1,5-a]pyridin-2-yl)-3-(5-(difluoromethoxy)-4-((6-oxo-5-(trifluoromethyl)-1,6-dihydropyridazin-4-yl)amino)pentyl)-6-fluoroquinazolin-4(3H)-one], the EC50 worked out at 0.001 µM.

For the molecule `O=c1[nH]ncc(N2CCC2CCCn2ccc3cc(-c4ncc(C(F)(F)F)cn4)c(F)cc3c2=O)c1C(F)(F)F` (stereo not drawn) [Example 72, 7-fluoro-2-[3-[1-[6-oxo-5-(trifluoromethyl)-1H-pyridazin-4-yl]azetidin-2-yl]propyl]-6-[5-(trifluoromethyl)pyrimidin-2-yl]isoquinolin-1-one], the EC50 was determined as 0.00585 µM.

`O=c1[nH]ncc(N[C@H](CCCn2ccc3cc(-c4ncc(C(F)(F)F)cn4)c(F)cc3c2=O)COC(F)(F)F)c1C(F)(F)F` [Example 435, (R)-7-fluoro-2-(4-((6-oxo-5-(trifluoromethyl)-1,6-dihydropyridazin-4-yl)amino)-5-(trifluoromethoxy)pentyl)-6-(5-(trifluoromethyl)pyrimidin-2-yl)isoquinolin-1(2H)-one]: the EC50 turned out to be 0.00283 µM.

`Cc1ccc(-c2cc3ccn(CCC[C@H](C)Nc4cn[nH]c(=O)c4C(F)(F)F)c(=O)c3cc2F)nc1C(F)(F)F` [Example 296, (S)-7-fluoro-6-(5-methyl-6-(trifluoromethyl)pyridin-2-yl)-2-(4-((6-oxo-5-(trifluoromethyl)-1,6-dihydropyridazin-4-yl)amino)pentyl)isoquinolin-1(2H)-one]: the EC50 was 1.46 µM.

Consider `O=c1[nH]ncc(N[C@H]2CCC[C@@H](Cn3ccc4cc(-c5ncc(OCCO)cn5)c(F)cc4c3=O)C2)c1C(F)(F)F` [Example 495, 7-fluoro-6-[5-(2-hydroxyethoxy)pyrimidin-2-yl]-2-[[(1R,3S)-3-[[6-oxo-5-(trifluoromethyl)-1H-pyridazin-4-yl]amino]cyclohexyl]methyl]isoquinolin-1-one], for which the EC50 was determined as 0.029 µM.

For `C[C@@H](CCCn1ccc2cc(-c3ncc(C(F)F)c(N[C@@H]4C[C@@H]4F)n3)c(F)cc2c1=O)Nc1cn[nH]c(=O)c1C(F)(F)F` [Example 223, 6-(5-(difluoromethyl)-4-(((1R,2S)-2-fluorocyclopropyl)amino)pyrimidin-2-yl)-7-fluoro-2-((S)-4-((6-oxo-5-(trifluoromethyl)-1,6-dihydropyridazin-4-yl)amino)pentyl)isoquinolin-1(2H)-one], the EC50 stood at 0.0333 µM.

`C[C@@H](CCCn1ccc2cc(-c3ncc(Cl)c(N)n3)c(F)c(F)c2c1=O)Nc1cn[nH]c(=O)c1C(F)(F)F` [Example 341, (S)-6-(4-amino-5-chloropyrimidin-2-yl)-7,8-difluoro-2-(4-((6-oxo-5-(trifluoromethyl)-1,6-dihydropyridazin-4-yl)amino)pentyl)isoquinolin-1(2H)-one]: the EC50 stood at 0.00195 µM.

In the case of `C[C@@H](CC(O)Cn1ccc2cc(-c3ncc(C(F)(F)F)cn3)c(F)cc2c1=O)Nc1cn[nH]c(=O)c1C(F)(F)F` (stereo partly drawn) [Example 478, 7-fluoro-2-[(4S)-2-hydroxy-4-[[6-oxo-5-(trifluoromethyl)-1H-pyridazin-4-yl]amino]pentyl]-6-[5-(trifluoromethyl)pyrimidin-2-yl]isoquinolin-1-one], the EC50 amounted to 0.00525 µM.

Regarding `C[C@@H](CCCn1ccc2cc(-c3nc(N4CCOCC4)c4sccc4n3)c(F)cc2c1=O)Nc1cn[nH]c(=O)c1C(F)(F)F` [Example 298, (S)-7-fluoro-6-(4-morpholinothieno[3,2-d]pyrimidin-2-yl)-2-(4-((6-oxo-5-(trifluoromethyl)-1,6-dihydropyridazin-4-yl)amino)pentyl)isoquinolin-1(2H)-one], the EC50 stood at 0.032 µM.

With `O=c1[nH]ncc(O[C@H]2CCC[C@@H](Cn3ccc4cc(-c5ncc(C(F)(F)F)cn5)c(F)cc4c3=O)C2)c1C(F)(F)F` [Example 454, 7-fluoro-2-(((1R,3S)-3-((6-oxo-5-(trifluoromethyl)-1,6-dihydropyridazin-4-yl)oxy)cyclohexyl)methyl)-6-(5-(trifluoromethyl)pyrimidin-2-yl)isoquinolin-1(2H)-one], the EC50 was found to be 0.00748 µM.

`O=c1[nH]ncc(N[C@H]2CCC[C@@H](Cn3c(=O)[nH]c4cc(-c5ncc(C(F)(F)F)cn5)c(F)cc4c3=O)C2)c1C(F)(F)F` [Example 281, 6-fluoro-3-(((1R,3S)-3-((6-oxo-5-(trifluoromethyl)-1,6-dihydropyridazin-4-yl)amino)cyclohexyl)methyl)-7-(5-(trifluoromethyl)pyrimidin-2-yl)quinazoline-2,4(1H,3H)-dione]: the EC50 was determined as 0.00287 µM.

Take `C[C@@H](CCCn1cnc2cc(-c3ncc(C(F)(F)F)c(N4CCC4)n3)c(F)cc2c1=O)Nc1cn[nH]c(=O)c1C(F)(F)F` [Example 189, (S)-7-(4-(azetidin-1-yl)-5-(trifluoromethyl)pyrimidin-2-yl)-6-fluoro-3-(4-((6-oxo-5-(trifluoromethyl)-1,6-dihydropyridazin-4-yl)amino)pentyl)quinazolin-4(3H)-one]: the EC50 was 0.0147 µM.

As to `C[C@@H](CCCn1ccc2cc(-c3ncc(-c4cc(C(F)(F)F)n(C)n4)cn3)c(F)cc2c1=O)Nc1cn[nH]c(=O)c1C(F)(F)F` [Example 93, (S)-7-fluoro-6-(5-(1-methyl-5-(trifluoromethyl)-1H-pyrazol-3-yl)pyrimidin-2-yl)-2-(4-((6-oxo-5-(trifluoromethyl)-1,6-dihydropyridazin-4-yl)amino)pentyl)isoquinolin-1(2H)-one], the EC50 is 0.0459 µM.
